Measured values: PubChem BioAssay (NCI)
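Exposure lasted 48 hours, with cells grown in 96-well plates and compounds tested at five concentrations. TGI is the concentration that stops growth completely.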

Assays:
Test in all cases: NCI tumour cell line growth inhibition, 48 h
786-0 renal = tested on: 786-0 renal
A498 renal = tested on: A498 renal
A549 NSCLC = tested on: A549 NSCLC
ACHN renal = tested on: ACHN renal
BT-549 breast = tested on: BT-549 breast
CAKI-1 renal = tested on: CAKI-1 renal
CCRF-CEM leukemia = tested on: CCRF-CEM leukemia
COLO 205 colon = tested on: COLO 205 colon
DU-145 prostate = tested on: DU-145 prostate
EKVX NSCLC = tested on: EKVX NSCLC
HCC-2998 colon = tested on: HCC-2998 colon
HCT-116 colon = tested on: HCT-116 colon
HCT-15 colon = tested on: HCT-15 colon
HL-60(TB) leukemia = tested on: HL-60(TB) leukemia
HOP-62 NSCLC = tested on: HOP-62 NSCLC
HOP-92 NSCLC = tested on: HOP-92 NSCLC
HS 578T breast = tested on: HS 578T breast
HT29 colon = tested on: HT29 colon
IGROV1 ovarian = tested on: IGROV1 ovarian
K-562 leukemia = tested on: K-562 leukemia
KM12 colon = tested on: KM12 colon
LOX IMVI melanoma = tested on: LOX IMVI melanoma
M14 melanoma = tested on: M14 melanoma
MALME-3M melanoma = tested on: MALME-3M melanoma
MCF7 breast = tested on: MCF7 breast
MDA-MB-231 breast = tested on: MDA-MB-231 breast
MDA-MB-435 = tested on: MDA-MB-435
MDA-N = tested on: MDA-N
MOLT-4 leukemia = tested on: MOLT-4 leukemia
NCI-H226 lung = tested on: NCI-H226 lung
NCI-H23 lung = tested on: NCI-H23 lung
NCI-H460 lung = tested on: NCI-H460 lung
NCI-H522 lung = tested on: NCI-H522 lung
NCI/ADR-RES ovarian = tested on: NCI/ADR-RES ovarian
OVCAR-3 ovarian = tested on: OVCAR-3 ovarian
OVCAR-5 ovarian = tested on: OVCAR-5 ovarian
OVCAR-8 ovarian = tested on: OVCAR-8 ovarian
PC-3 prostate = tested on: PC-3 prostate
RPMI-8226 leukemia = tested on: RPMI-8226 leukemia
RXF 393 renal = tested on: RXF 393 renal
SF-268 CNS = tested on: SF-268 CNS
SF-295 CNS = tested on: SF-295 CNS
SF-539 CNS = tested on: SF-539 CNS
SK-MEL-2 melanoma = tested on: SK-MEL-2 melanoma
SK-MEL-28 melanoma = tested on: SK-MEL-28 melanoma
SK-MEL-5 melanoma = tested on: SK-MEL-5 melanoma
SK-OV-3 ovarian = tested on: SK-OV-3 ovarian
SN12C renal = tested on: SN12C renal
SNB-19 CNS = tested on: SNB-19 CNS
SNB-75 CNS = tested on: SNB-75 CNS
SR leukemia = tested on: SR leukemia
SW-620 colon = tested on: SW-620 colon
T-47D breast = tested on: T-47D breast
TK-10 renal = tested on: TK-10 renal
U251 CNS = tested on: U251 CNS
UACC-257 melanoma = tested on: UACC-257 melanoma
UACC-62 melanoma = tested on: UACC-62 melanoma
UO-31 renal = tested on: UO-31 renal

CC(C)CCOC(=O)NC(Nc1ccc(F)cc1)(C(F)(F)F)C(F)(F)F
TGI (786-0 renal): > 100 µM
TGI (A498 renal): > 100 µM
TGI (A549 NSCLC): > 100 µM
TGI (ACHN renal): > 100 µM
TGI (BT-549 breast): > 100 µM
TGI (CAKI-1 renal): > 100 µM
TGI (CCRF-CEM leukemia): 99.5 µM
TGI (COLO 205 colon): 42.1 µM
TGI (DU-145 prostate): > 100 µM
TGI (EKVX NSCLC): > 100 µM
TGI (HCC-2998 colon): > 100 µM
TGI (HCT-116 colon): > 100 µM
TGI (HCT-15 colon): > 100 µM
TGI (HL-60(TB) leukemia): > 100 µM
TGI (HOP-62 NSCLC): > 100 µM
TGI (HOP-92 NSCLC): > 100 µM
TGI (HS 578T breast): > 100 µM
TGI (HT29 colon): > 100 µM
TGI (IGROV1 ovarian): > 100 µM
TGI (K-562 leukemia): > 100 µM
TGI (KM12 colon): > 100 µM
TGI (LOX IMVI melanoma): > 100 µM
TGI (M14 melanoma): > 100 µM
TGI (MALME-3M melanoma): > 100 µM
TGI (MCF7 breast): > 100 µM
TGI (MDA-MB-231 breast): 76.1 µM
TGI (MDA-MB-435): > 100 µM
TGI (MDA-N): > 100 µM
TGI (MOLT-4 leukemia): 76.8 µM
TGI (NCI-H226 lung): > 100 µM
TGI (NCI-H23 lung): > 100 µM
TGI (NCI-H460 lung): > 100 µM
TGI (NCI-H522 lung): 69.4 µM
TGI (NCI/ADR-RES ovarian): > 100 µM
TGI (OVCAR-3 ovarian): > 100 µM
TGI (OVCAR-5 ovarian): > 100 µM
TGI (OVCAR-8 ovarian): > 100 µM
TGI (PC-3 prostate): > 100 µM
TGI (RPMI-8226 leukemia): > 100 µM
TGI (RXF 393 renal): > 100 µM
TGI (SF-268 CNS): > 100 µM
TGI (SF-295 CNS): > 100 µM
TGI (SF-539 CNS): 46.1 µM
TGI (SK-MEL-2 melanoma): > 100 µM
TGI (SK-MEL-28 melanoma): > 100 µM
TGI (SK-MEL-5 melanoma): > 100 µM
TGI (SK-OV-3 ovarian): > 100 µM
TGI (SN12C renal): > 100 µM
TGI (SNB-19 CNS): > 100 µM
TGI (SNB-75 CNS): > 100 µM
TGI (SR leukemia): 25.4 µM
TGI (SW-620 colon): > 100 µM
TGI (T-47D breast): 78.5 µM
TGI (TK-10 renal): > 100 µM
TGI (U251 CNS): > 100 µM
TGI (UACC-257 melanoma): > 100 µM
TGI (UACC-62 melanoma): > 100 µM
TGI (UO-31 renal): 36.5 µM
